In patent US9326973B2, “Hepatitis C virus inhibitors” (priority 2012, dated 2016):

Test system: HCV replicon, genotype-1a variant with glutamine 30 changed to glutamate in the NS5A protein
Test: microbe, parasite or virus in culture
Assay type: cell-based, HCV genotype 1a
Conditions: HCV replicon genotype 1a Q30E (Q→E) variant; test compound titrated with an NS5A-targeting compound (BMS-790052 fixed at 200 nM); ranking of synergist activity
From the text: The NS5A synergistic inhibitory effect of test compounds can be determined using various amounts of an NS5A-targeting compound with titration of a second compound of interest. […] In one embodiment, the HCV genotype strain can be genotype 1a containing a change at amino acid 30 of the NS5A protein consisting of glutamine to glutamate. The test compound can be chosen from compounds listed above or from others present in the literature.

Row | Structure (SMILES) | Fold-Synergistic 1a (Q30E) [fold]
1 | CC(C)(NCC(F)(F)F)C(=O)N[C@H](c1nc(-c2ccc(-c3ccc(-c4c[nH]c([C@@H](NC(=O)C(C)(C)NCC(F)(F)F)C(C)(C)C)n4)cc3)cc2)c[nH]1)C(C)(C)C [Compound L-50] | >100
2 | CC(C)(C)[C@H](NC(=O)[C@@H]1CCCCN1CC(F)(F)F)c1nc(-c2ccc(-c3ccc(-c4c[nH]c([C@@H](NC(=O)[C@@H]5CCCCN5CC(F)(F)F)C(C)(C)C)n4)cc3)cc2)c[nH]1 [Compound L-51] | >100
3 | CC(C)(C)[C@H](NC(=O)[C@@H]1CCCN1CC(F)(F)F)c1nc(-c2ccc(-c3ccc(-c4c[nH]c([C@@H](NC(=O)[C@@H]5CCCN5CC(F)(F)F)C(C)(C)C)n4)cc3)cc2)c[nH]1 [Compound L-52] | >100
4 | CC1(C)CC(C(=O)N[C@H](c2nc(-c3ccc(-c4ccc(-c5c[nH]c([C@@H](NC(=O)C6CC(C)(C)C6)C(C)(C)C)n5)cc4)cc3)c[nH]2)C(C)(C)C)C1 [Compound L-53] | >100
5 | COC1CC(C(=O)N[C@H](c2nc(-c3ccc(-c4ccc(-c5c[nH]c([C@@H](NC(=O)C6CC(OC)C6)C(C)(C)C)n5)cc4)cc3)c[nH]2)C(C)(C)C)C1 (stereo partly drawn) [Compound L-54] | >100
6 | CC(C)(C)OC(=O)N1[C@H](C(=O)N[C@H](c2nc(-c3ccc(-c4ccc(-c5c[nH]c([C@@H](NC(=O)[C@@H]6COC(C)(C)N6C(=O)OC(C)(C)C)C(C)(C)C)n5)cc4)cc3)c[nH]2)C(C)(C)C)COC1(C)C [Compound L-55] | >100
7 | CC(C)(CO)C(=O)N[C@H](c1nc(-c2ccc(-c3ccc(-c4c[nH]c([C@@H](NC(=O)C(C)(C)CO)C(C)(C)C)n4)cc3)cc2)c[nH]1)C(C)(C)C [Compound L-56] | >100
8 | CC(C)(C)OC(=O)N1CC2(CC(C(=O)N[C@H](c3nc(-c4ccc(-c5ccc(-c6c[nH]c([C@@H](NC(=O)C7CC8(C7)CN(C(=O)OC(C)(C)C)C8)C(C)(C)C)n6)cc5)cc4)c[nH]3)C(C)(C)C)C2)C1 (stereo partly drawn) [Compound L-57] | >100
9 | CC(C)(C)[C@H](NC(=O)C1(C)CC1(F)F)c1nc(-c2ccc(-c3ccc(-c4c[nH]c([C@@H](NC(=O)C5(C)CC5(F)F)C(C)(C)C)n4)cc3)cc2)c[nH]1 (stereo partly drawn) [Compound L-58a] | >100
10 | CC(C)(C)OC(=O)N1CC(C)(C)OC[C@H]1C(=O)N[C@H](c1nc(-c2ccc(-c3ccc(-c4c[nH]c([C@@H](NC(=O)[C@@H]5COC(C)(C)CN5C(=O)OC(C)(C)C)C(C)(C)C)n4)cc3)cc2)c[nH]1)C(C)(C)C [Compound L-60] | >100
11 | CC(C)(C)OC(=O)N1CCOC[C@H]1C(=O)N[C@H](c1nc(-c2ccc(-c3ccc(-c4c[nH]c([C@@H](NC(=O)[C@@H]5COCCN5C(=O)OC(C)(C)C)C(C)(C)C)n4)cc3)cc2)c[nH]1)C(C)(C)C [Compound L-61] | >100
12 | CN(CC(F)(F)F)C(C)(C)C(=O)N[C@H](c1nc(-c2ccc(-c3ccc(-c4c[nH]c([C@@H](NC(=O)C(C)(C)N(C)CC(F)(F)F)C(C)(C)C)n4)cc3)cc2)c[nH]1)C(C)(C)C [Compound L-62] | >100
13 | CC(C)(C)OC(=O)N1CC(C)(C(=O)N[C@H](c2nc(-c3ccc(-c4ccc(-c5c[nH]c([C@@H](NC(=O)C6(C)CN(C(=O)OC(C)(C)C)C6)C(C)(C)C)n5)cc4)cc3)c[nH]2)C(C)(C)C)C1 [Compound L-63] | >100
14 | CC(C)(C)[C@H](NC(=O)[C@H]1CCCO1)c1nc(-c2ccc(-c3ccc(-c4c[nH]c([C@@H](NC(=O)[C@H]5CCCO5)C(C)(C)C)n4)cc3)cc2)c[nH]1 [Compound L-64] | >100
15 | CC(C)(C)[C@H](NC(=O)[C@@H]1CCCO1)c1nc(-c2ccc(-c3ccc(-c4c[nH]c([C@@H](NC(=O)[C@@H]5CCCO5)C(C)(C)C)n4)cc3)cc2)c[nH]1 [Compound L-65] | >100
16 | CC(C)(C)[C@H](NC(=O)C(C)(O)C(F)(F)F)c1nc(-c2ccc(-c3ccc(-c4c[nH]c([C@@H](NC(=O)C(C)(O)C(F)(F)F)C(C)(C)C)n4)cc3)cc2)c[nH]1 (stereo partly drawn) [Compound L-66a] | >100
17 | CC(C)(C)[C@H](NC(=O)[C@H]1[C@@H]2COC[C@@H]21)c1nc(-c2ccc(-c3ccc(-c4c[nH]c([C@@H](NC(=O)[C@H]5[C@@H]6COC[C@@H]65)C(C)(C)C)n4)cc3)cc2)c[nH]1 [Compound L-67] | >100
18 | CC(C)(C)[C@H](NC(=O)[C@@H]1COCCN1CC(F)(F)F)c1nc(-c2ccc(-c3ccc(-c4c[nH]c([C@@H](NC(=O)[C@@H]5COCCN5CC(F)(F)F)C(C)(C)C)n4)cc3)cc2)c[nH]1 [Compound L-68] | >100
19 | CC1(C(=O)N[C@H](c2nc(-c3ccc(-c4ccc(-c5c[nH]c([C@@H](NC(=O)C6(C)CCCO6)C(C)(C)C)n5)cc4)cc3)c[nH]2)C(C)(C)C)CCCO1 (stereo partly drawn) [Compound L-69] | >100

Row | Structure (SMILES) | Fold-Synergistic 1a (Q30E) [fold]
20 | CC(C)(C)[C@H](NC(=O)CC1CCCO1)c1nc(-c2ccc(-c3ccc(-c4c[nH]c([C@@H](NC(=O)CC5CCCO5)C(C)(C)C)n4)cc3)cc2)c[nH]1 (stereo partly drawn) [Compound L-70] | >100
21 | CC(C)(C)[C@H](NC(=O)C1(O)CCC1)c1nc(-c2ccc(-c3ccc(-c4c[nH]c([C@@H](NC(=O)C5(O)CCC5)C(C)(C)C)n4)cc3)cc2)c[nH]1 [Compound L-71] | >100
22 | COC(=O)N[C@H](C(=O)N[C@H](c1nc(-c2ccc(-c3ccc(-c4c[nH]c([C@@H](NC(=O)[C@@H](NC(=O)OC)C5C[C@@H](C)O[C@H](C)C5)C(C)(C)C)n4)cc3)cc2)c[nH]1)C(C)(C)C)C1C[C@@H](C)O[C@H](C)C1 (stereo partly drawn) [Compound L-72] | >10
23 | CC(C)(C)[C@H](NC(=O)C1(O)CCCC1)c1nc(-c2ccc(-c3ccc(-c4c[nH]c([C@@H](NC(=O)C5(O)CCCC5)C(C)(C)C)n4)cc3)cc2)c[nH]1 [Compound L-73] | >100
24 | CC(C)(C)[C@H](NC(=O)[C@H](O)C1CCCCC1)c1nc(-c2ccc(-c3ccc(-c4c[nH]c([C@@H](NC(=O)[C@H](O)C5CCCCC5)C(C)(C)C)n4)cc3)cc2)c[nH]1 [Compound L-74] | >100
25 | CC(C)(C)[C@H](NC(=O)CC1CCOC2(CC2)C1)c1nc(-c2ccc(-c3ccc(-c4c[nH]c([C@@H](NC(=O)CC5CCOC6(CC6)C5)C(C)(C)C)n4)cc3)cc2)c[nH]1 (stereo partly drawn) [Compound L-75] | >100
26 | CC(C)(C)[C@H](O)C(=O)N[C@H](c1nc(-c2ccc(-c3ccc(-c4c[nH]c([C@@H](NC(=O)[C@@H](O)C(C)(C)C)C(C)(C)C)n4)cc3)cc2)c[nH]1)C(C)(C)C [Compound L-76] | >100
27 | CC(C)(C)[C@H](NC(=O)[C@@H](O)C1CCCCC1)c1nc(-c2ccc(-c3ccc(-c4c[nH]c([C@@H](NC(=O)[C@@H](O)C5CCCCC5)C(C)(C)C)n4)cc3)cc2)c[nH]1 [Compound L-77] | >100
28 | CC(C)[C@H](O)C(=O)N[C@H](c1nc(-c2ccc(-c3ccc(-c4c[nH]c([C@@H](NC(=O)[C@@H](O)C(C)C)C(C)(C)C)n4)cc3)cc2)c[nH]1)C(C)(C)C [Compound L-78] | >100
29 | CC(C)(C)[C@H](NC(=O)[C@H]1CCC(=O)O1)c1nc(-c2ccc(-c3ccc(-c4c[nH]c([C@@H](NC(=O)[C@H]5CCC(=O)O5)C(C)(C)C)n4)cc3)cc2)c[nH]1 [Compound L-79] | <10
30 | CO[C@H](C)C(=O)N[C@H](c1nc(-c2ccc(-c3ccc(-c4c[nH]c([C@@H](NC(=O)[C@@H](C)OC)C(C)(C)C)n4)cc3)cc2)c[nH]1)C(C)(C)C [Compound L-80] | >100
31 | CC(C)(C)[C@H](NC(=O)[C@H](O)C(F)(F)F)c1nc(-c2ccc(-c3ccc(-c4c[nH]c([C@@H](NC(=O)[C@H](O)C(F)(F)F)C(C)(C)C)n4)cc3)cc2)c[nH]1 [Compound L-81] | >100
32 | CC(C)[C@@H](O)C(=O)N[C@H](c1nc(-c2ccc(-c3ccc(-c4c[nH]c([C@@H](NC(=O)[C@H](O)C(C)C)C(C)(C)C)n4)cc3)cc2)c[nH]1)C(C)(C)C [Compound L-82] | >100
33 | CC1(C(=O)N[C@H](c2nc(-c3ccc(-c4ccc(-c5c[nH]c([C@@H](NC(=O)C6(C)OCCCO6)C(C)(C)C)n5)cc4)cc3)c[nH]2)C(C)(C)C)OCCCO1 [Compound L-83] | >100
34 | CC1(C(=O)N[C@H](c2nc(-c3ccc(-c4ccc(-c5c[nH]c([C@@H](NC(=O)C6(C)OCC7(CC7)CO6)C(C)(C)C)n5)cc4)cc3)c[nH]2)C(C)(C)C)OCC2(CC2)CO1 (stereo partly drawn) [Compound L-84] | >100
35 | C[C@H]1C[C@H](C)OC(C)(C(=O)N[C@H](c2nc(-c3ccc(-c4ccc(-c5c[nH]c([C@@H](NC(=O)C6(C)O[C@@H](C)C[C@H](C)O6)C(C)(C)C)n5)cc4)cc3)c[nH]2)C(C)(C)C)O1 (stereo partly drawn) [Compound L-85] | >100
36 | CO[C@@H](C(=O)N[C@H](c1nc(-c2ccc(-c3ccc(-c4c[nH]c([C@@H](NC(=O)[C@H](OC)C(C)C)C(C)(C)C)n4)cc3)cc2)c[nH]1)C(C)(C)C)C(C)C [Compound L-86] | >100
37 | CC1(C(=O)N[C@H](c2nc(-c3ccc(-c4ccc(-c5c[nH]c([C@@H](NC(=O)C6(C)OCC(F)(F)CO6)C(C)(C)C)n5)cc4)cc3)c[nH]2)C(C)(C)C)OCC(F)(F)CO1 [Compound L-87] | >100
